Source: US20210030005A1, “BENZOXABOROLE COMPOSITIONS HAVING A GROWTH ENHANCING EFFECT” (BORAGEN, INC., priority 2018, published 2021)

Tests used:
[1] = system: turnips; assay: Soil drench growth enhancing effect, turnip; assay type: in vivo; conditions: for Average Dry Matter Weight / Average Root Length / Average Shoot Height: 4 treatments every 14 days, 14 days after final treatment
Method: (§1) Boron-containing compounds/compositions were applied directly to the soil, and the growth of plants was measured. An exemplary embodiment of a benzoxaborole compound includes 5-chlorobenzo[c][1,2]oxaborol-1(3H)-ol, which may be referred to herein as BAG8.
(§2) Eight 2-gallon pots were filled with steamed soil for each of the five treatments listed below:
(§3) 3-4 seeds were planted into each pot at a depth of 1 inch and covered. All seedlings were subjected to 16 hours of daylight at ˜800 μmol/m^2/second (light intensity) provided by cool-white fluorescent lamps. Daytime temperatures were ˜25° C. and were dropped to ˜18° C. at night.
(§4) Solutions were prepared by first dissolving the appropriate amount of benzoxaborole in ethanol or acetone then adding to distilled water. 100 mL of treatment was applied to each pot in a circular motion to evenly coat the surface of the soil. These treatments were applied every 14 days for a total of 4 treatments, including the at-planting treatment. Each pot was monitored, and 50 mL of distilled water was added to each pot when soil was dry.
(§5) Germination and shoot height data were recorded every seven days. 14 days after the final treatment application, plants were carefully removed from each pot and final shoot length, root length, and dry matter weight were recorded.
(§6) This experiment was conducted on red table beet, broccoli, snow pea, turnips, and spring wheat.

[2] = system: spring wheat; assay: Soil drench growth enhancing effect, spring wheat; assay type: in vivo; conditions: for Average Dry Matter Weight / Average Root Length / Average Shoot Height: 4 treatments every 14 days, 14 days after final treatment
Method: as §1, §2, §3, §4, §5, §6

[3] = system: maize seeds; assay: Seed treatment growth effect on maize (germination trays); assay type: in vivo; conditions: for Mean Root Length / Mean Stem Length: suspension concentrate, 10 days
Method: A sample suspension concentrate was prepared by mixing 0.8 g of Atlas G-5002L, 0.8 g ATLOX 4913, 5 g of glycerin, 50 mg of anti-foam compound, 0.178 g of xanthan gum, 89 mg of anti-microbial, 53.08 g of water, and 40 g of BAG8. […] […] The container was then shaken to evenly coat the seeds and allowed to dry overnight. Once dry, 50 seeds from each rate and 50 untreated seeds were placed in separate seed germination trays with moist paper towel. 10 days later, root and stem lengths from each seed were taken. Analysis of variance was used to examine root and stem length data and means were separated using Fisher's least significant difference at α=0.05.

[4] = system: wheat seedlings; assay: Soil drench treatment on wheat seedlings (perlite); assay type: in vivo; conditions: for Mean Root Length: 10 days after germination, measured 10 days following drench
Method: Sample soil drench treatments were prepared by dissolving […], 3.19 mg, or 3.99 mg of BAG8 in 67.5 mL of acetone in separate vials. Each vial was then added to 202.5 mL of water and shaken vigorously to produce a suitable sample for soil drench treatment at rates of 75 g/A, 100 g/A, and 125 g/A, respectively.
Wheat seeds were sown into pots filled with perlite growth medium and allowed to germinate under normal glass house conditions. 10 days after germination the pots were drenched with the respective BAG8 solutions. 10 days following the drench, root and stem lengths were measured. Analysis of variance was used to examine root length data and means were separated using Fisher's least significant difference at α=0.05.

[5] = system: Asian Soybean Rust (Phakopsora pachyrhizi); assay: Field trial, Asian Soybean Rust severity on soybean; assay type: in vivo
Method: (§7) In this example, diseased soybeans having Asian Soybean Rust (Phakopsora pachyrhizi) were treated with BAG8 and Azoxystrobin. Testing was performed to assess the fungicidal effect of the compounds on Asian Soybean Rust and to assess the growth enhancing effects of the compounds on the diseased soybeans.
(§8) Soybeans were planted into 6×30 ft plots and replicated four times in a randomized complete block design. Two treatments and an untreated control were tested for efficacy against Asian Soybean Rust (Phakopsora pachyrhizi) and assessed for yield at the conclusion of the growing season. Foliar applications of the two treatments, BAG8 at 0.25 pounds of active ingredient per acre and azoxystrobin at 0.25 pounds of active ingredient per acre, were applied to the plots at two separate times: growth stage R1 (flowering) and growth stage R3 (bean pod formation). Best practices were used consistently across the test plots with regard to field conditions such as fertilization, insect control, weed control, and irrigation. Disease assessments were taken in each plot 28 days after the final foliar fungicide application. At maturity, each plot was harvested using standard harvesting equipment. After shelling, the beans were weighed at 13% moisture and yield calculations extrapolated to bushels per acre.
(§9) Analysis of variance (ANOVA) was used to examine disease severity data and means were separated using Fisher's least significant difference (LSD) method at α=0.05. […]

[6] = system: diseased soybeans; assay: Field trial, yield of diseased soybeans; assay type: in vivo, soybean
Method: as §7, §8, §9

[7] = system: Southern Rust of Maize (Puccinia polysora); assay: Field trial, Southern Rust of Maize severity on maize; assay type: in vivo
Method: (§10) In this example, diseased maize having Southern Rust of Maize (Puccinia polysora) was treated with BAG8, Azoxystrobin, and Boscalid. Testing was performed to assess the fungicidal effect of the compounds on Southern Rust of Maize (Puccinia polysora) and to assess the growth enhancing effect of the compounds on the diseased maize.
(§11) Maize was planted into 6×30 ft plots and replicated four times in a randomized complete block design. Three treatments and an untreated control were tested for efficacy against Southern Rust of Maize (Puccinia polysora) and assessed for yield at the conclusion of the growing season. Foliar applications of the three treatments, BAG8 at 0.25 pounds of active ingredient per acre, azoxystrobin at 0.25 pounds of active ingredient per acre, and boscalid at 0.24 pounds of active ingredient per acre, were applied to the plots at growth stage V8. Best practices were used consistently across the test plots with regard to field conditions such as fertilization, insect control, weed control, and irrigation. Disease assessments were taken in each plot 28 days after the foliar fungicide application. At maturity, each plot was harvested using standard harvesting equipment. After shelling, the kernels were weighed at 11% moisture and yield calculations extrapolated to bushels per acre.
as §9

[8] = system: diseased maize; assay: Field trial, yield of diseased maize; assay type: in vivo
Method: as §10, §11, §9

[9] = all rates (0.12-0.60 lb/A), soil drench
[10] = treatment B, 0.12 lb/A soil drench
[11] = treatment C, 0.25 lb/A soil drench
[12] = treatment D, 0.35 lb/A soil drench
[13] = treatment E, 0.60 lb/A soil drench
[14] = all tested application rates, maize seed treatment

OB1OCc2cc(Cl)ccc21 [BAG8, 5-chlorobenzo[c][1,2]oxaborol-1(3H)-ol]
growth effect compared with untreated control [1, 9]: longer shoots, longer roots, and greater dry matter weight than the untreated control | Average Dry Matter Weight [1, 10]: 6.40 mg | Average Root Length [1, 10]: 3.67 cm | Average Shoot Height [1, 10]: 1.81 cm | Average Dry Matter Weight [1, 11]: 7.62 mg | Average Root Length [1, 11]: 4.96 cm | Average Shoot Height [1, 11]: 2.09 cm | Average Dry Matter Weight [1, 12]: 7.82 mg | Average Root Length [1, 12]: 4.02 cm | Average Shoot Height [1, 12]: 2.18 cm | Average Dry Matter Weight [1, 13]: 6.36 mg | Average Root Length [1, 13]: 3.15 cm | Average Shoot Height [1, 13]: 2.13 cm | growth effect compared with untreated control [2, 9]: longer shoots, longer roots, and greater dry matter weight than the untreated control | increase in final dry matter weight of wheat ([2]; applied at 0.12 and 0.25 pounds per acre, soil drench): ~250% | Average Dry Matter Weight [2, 10]: 1204.30 mg | Average Root Length [2, 10]: 21.30 cm | Average Shoot Height [2, 10]: 39.50 cm | Average Dry Matter Weight [2, 11]: 1123.60 mg | Average Root Length [2, 11]: 24.40 cm | Average Shoot Height [2, 11]: 39.70 cm | Average Dry Matter Weight [2, 12]: 640.20 mg | Average Root Length [2, 12]: 20.40 cm | Average Shoot Height [2, 12]: 37.50 cm | Average Dry Matter Weight [2, 13]: 649.70 mg | Average Root Length [2, 13]: 22.00 cm | Average Shoot Height [2, 13]: 39.90 cm | increased root length relative to untreated control [3, 14]: 49-70% | increased stem length relative to untreated control [3, 14]: 54-75% | Mean Root Length ([3]; seed treatment 0.25 lb ai/A): 122.0 mm | Mean Stem Length ([3]; seed treatment 0.25 lb ai/A): 141.0 mm | Mean Root Length ([3]; seed treatment 0.50 lb ai/A): 110.2 mm | Mean Stem Length ([3]; seed treatment 0.50 lb ai/A): 124.5 mm | Mean Root Length ([3]; seed treatment 0.75 lb ai/A): 125.1 mm | Mean Stem Length ([3]; seed treatment 0.75 lb ai/A): 136.5 mm | increased root length relative to untreated control ([4]; all tested application rates, soil drench, wheat seedlings): 27-45% | Mean Root Length ([4]; soil drench 75 g ai/A): 580.4 mm | Mean Root Length ([4]; soil drench 100 g ai/A): 524.2 mm | Mean Root Length ([4]; soil drench 125 g ai/A): 507.0 mm | reduced disease in comparison to untreated control ([5]; 0.25 lb ai/A foliar): 47% | Disease Severity (% Leaf Coverage) ([5]; 0.25 lb ai/A foliar at R1 and R3, 28 days after final application): 48.2 c % Leaf Coverage | increased soybean yield ([6]; 0.25 lb ai/A foliar): 281% | Yield ([6]; 0.25 lb ai/A foliar at R1 and R3, harvest at maturity, 13% moisture): 55.6 a bu/A | reduced disease relative to the untreated control ([7]; 0.25 lb ai/A foliar): 70% | Disease Severity (% Leaf Coverage) ([7]; 0.25 lb ai/A foliar at V8, 28 days after application): 19.6 b % Leaf Coverage | increased yield relative to untreated control ([8]; 0.25 lb ai/A foliar): 194% | Yield ([8]; 0.25 lb ai/A foliar at V8, harvest at maturity, 11% moisture): 146.2 a bu/A
